Test results published in the NIST ThermoML archive (doi:10.1016/j.jct.2012.03.031).
± gives the expanded uncertainty stated by the source.

Assay: molar heat capacity at constant pressure
Details: 101.33 kPa

CCCCc1ccc(C(=O)Oc2ccc(C#N)c(F)c2)cc1 [4-cyano-3-fluorophenyl 4-butylbenzoate]
Details | molar heat capacity at constant pressure [J/K/mol]
4.918 K, Crystal 1, Small (less than 1 g) adiabatic calorimetry | 1.032 ± 0.14
5 K, Crystal 1, Vacuum adiabatic calorimetry | 1.08 ± 0.22
5 K, Crystal 2, Vacuum adiabatic calorimetry | 1.44 ± 0.26
5.052 K, Crystal 2, Small (less than 1 g) adiabatic calorimetry | 1.482 ± 0.18
5.07 K, Crystal 1, Small (less than 1 g) adiabatic calorimetry | 1.127 ± 0.14
5.575 K, Crystal 1, Small (less than 1 g) adiabatic calorimetry | 1.448 ± 0.16
5.722 K, Crystal 2, Small (less than 1 g) adiabatic calorimetry | 2.06 ± 0.2
5.747 K, Crystal 1, Small (less than 1 g) adiabatic calorimetry | 1.591 ± 0.16
6.284 K, Crystal 1, Small (less than 1 g) adiabatic calorimetry | 2.011 ± 0.18
6.538 K, Crystal 2, Small (less than 1 g) adiabatic calorimetry | 2.901 ± 0.23
6.573 K, Crystal 1, Small (less than 1 g) adiabatic calorimetry | 2.293 ± 0.19
7.108 K, Crystal 1, Small (less than 1 g) adiabatic calorimetry | 2.802 ± 0.22
7.413 K, Crystal 2, Small (less than 1 g) adiabatic calorimetry | 3.946 ± 0.27
7.456 K, Crystal 1, Small (less than 1 g) adiabatic calorimetry | 3.2 ± 0.23
8.006 K, Crystal 1, Small (less than 1 g) adiabatic calorimetry | 3.815 ± 0.25
8.284 K, Crystal 2, Small (less than 1 g) adiabatic calorimetry | 5.139 ± 0.3
8.384 K, Crystal 1, Small (less than 1 g) adiabatic calorimetry | 4.319 ± 0.27
8.948 K, Crystal 1, Small (less than 1 g) adiabatic calorimetry | 5.034 ± 0.28
9.21 K, Crystal 2, Small (less than 1 g) adiabatic calorimetry | 6.549 ± 0.34
9.353 K, Crystal 1, Small (less than 1 g) adiabatic calorimetry | 5.638 ± 0.3
9.931 K, Crystal 1, Small (less than 1 g) adiabatic calorimetry | 6.451 ± 0.32
10 K, Crystal 1, Vacuum adiabatic calorimetry | 6.56 ± 0.34
10 K, Crystal 2, Vacuum adiabatic calorimetry | 7.87 ± 0.38
10.23 K, Crystal 2, Small (less than 1 g) adiabatic calorimetry | 8.254 ± 0.37
10.31 K, Crystal 1, Small (less than 1 g) adiabatic calorimetry | 7.064 ± 0.33
10.88 K, Crystal 1, Small (less than 1 g) adiabatic calorimetry | 7.93 ± 0.34
11.24 K, Crystal 2, Small (less than 1 g) adiabatic calorimetry | 10.07 ± 0.4
11.26 K, Crystal 1, Small (less than 1 g) adiabatic calorimetry | 8.608 ± 0.35
11.81 K, Crystal 1, Small (less than 1 g) adiabatic calorimetry | 9.492 ± 0.36
12.23 K, Crystal 1, Small (less than 1 g) adiabatic calorimetry | 10.25 ± 0.38
12.28 K, Crystal 2, Small (less than 1 g) adiabatic calorimetry | 12.04 ± 0.42
12.81 K, Crystal 1, Small (less than 1 g) adiabatic calorimetry | 11.22 ± 0.39
13.24 K, Crystal 1, Small (less than 1 g) adiabatic calorimetry | 12.07 ± 0.4
13.39 K, Crystal 2, Small (less than 1 g) adiabatic calorimetry | 14.28 ± 0.45
13.89 K, Crystal 1, Small (less than 1 g) adiabatic calorimetry | 13.26 ± 0.41
14.32 K, Crystal 1, Small (less than 1 g) adiabatic calorimetry | 14.11 ± 0.41
14.71 K, Crystal 2, Small (less than 1 g) adiabatic calorimetry | 17 ± 0.48
15.07 K, Crystal 1, Small (less than 1 g) adiabatic calorimetry | 15.49 ± 0.44
15.47 K, Crystal 1, Small (less than 1 g) adiabatic calorimetry | 16.32 ± 0.44
16.2 K, Crystal 2, Small (less than 1 g) adiabatic calorimetry | 20.27 ± 0.5
16.43 K, Crystal 1, Small (less than 1 g) adiabatic calorimetry | 18.21 ± 0.46
16.76 K, Crystal 1, Small (less than 1 g) adiabatic calorimetry | 18.95 ± 0.47
17.73 K, Crystal 2, Small (less than 1 g) adiabatic calorimetry | 23.69 ± 0.53
18.05 K, Crystal 1, Small (less than 1 g) adiabatic calorimetry | 21.6 ± 0.49
18.4 K, Crystal 1, Small (less than 1 g) adiabatic calorimetry | 22.4 ± 0.49
19.39 K, Crystal 2, Small (less than 1 g) adiabatic calorimetry | 27.53 ± 0.55
19.84 K, Crystal 1, Small (less than 1 g) adiabatic calorimetry | 25.4 ± 0.51
20 K, Crystal 1, Vacuum adiabatic calorimetry | 25.75 ± 0.45
20 K, Crystal 2, Vacuum adiabatic calorimetry | 28.93 ± 0.49
20.07 K, Crystal 1, Small (less than 1 g) adiabatic calorimetry | 25.94 ± 0.51
21.11 K, Crystal 2, Small (less than 1 g) adiabatic calorimetry | 31.48 ± 0.57
21.53 K, Crystal 1, Small (less than 1 g) adiabatic calorimetry | 29.12 ± 0.53
21.58 K, Crystal 1, Small (less than 1 g) adiabatic calorimetry | 29.19 ± 0.53
22.83 K, Crystal 2, Small (less than 1 g) adiabatic calorimetry | 35.46 ± 0.58
23.05 K, Crystal 1, Small (less than 1 g) adiabatic calorimetry | 32.44 ± 0.54
23.28 K, Crystal 1, Small (less than 1 g) adiabatic calorimetry | 32.87 ± 0.55
24.53 K, Crystal 2, Small (less than 1 g) adiabatic calorimetry | 39.3 ± 0.59
24.67 K, Crystal 1, Small (less than 1 g) adiabatic calorimetry | 35.93 ± 0.56
24.93 K, Crystal 1, Small (less than 1 g) adiabatic calorimetry | 36.45 ± 0.56
26.2 K, Crystal 2, Small (less than 1 g) adiabatic calorimetry | 43.02 ± 0.61
26.34 K, Crystal 1, Small (less than 1 g) adiabatic calorimetry | 39.52 ± 0.58
26.69 K, Crystal 1, Small (less than 1 g) adiabatic calorimetry | 40.25 ± 0.58
27.89 K, Crystal 2, Small (less than 1 g) adiabatic calorimetry | 47.05 ± 0.63
27.96 K, Crystal 1, Small (less than 1 g) adiabatic calorimetry | 43.27 ± 0.6
28.5 K, Crystal 1, Small (less than 1 g) adiabatic calorimetry | 44.43 ± 0.6
29.49 K, Crystal 1, Small (less than 1 g) adiabatic calorimetry | 46.73 ± 0.6
29.58 K, Crystal 2, Small (less than 1 g) adiabatic calorimetry | 50.91 ± 0.62
30 K, Crystal 1, Vacuum adiabatic calorimetry | 47.75 ± 0.52
30 K, Crystal 2, Vacuum adiabatic calorimetry | 51.82 ± 0.55
30.38 K, Crystal 1, Small (less than 1 g) adiabatic calorimetry | 48.59 ± 0.57
30.97 K, Crystal 1, Small (less than 1 g) adiabatic calorimetry | 49.89 ± 0.58
31.27 K, Crystal 2, Small (less than 1 g) adiabatic calorimetry | 54.58 ± 0.6
32.25 K, Crystal 1, Small (less than 1 g) adiabatic calorimetry | 52.59 ± 0.58
32.3 K, Crystal 1, Small (less than 1 g) adiabatic calorimetry | 52.61 ± 0.58
32.73 K, Crystal 2, Small (less than 1 g) adiabatic calorimetry | 57.73 ± 0.62
33.42 K, Crystal 1, Small (less than 1 g) adiabatic calorimetry | 55.02 ± 0.6
34.08 K, Crystal 2, Small (less than 1 g) adiabatic calorimetry | 60.65 ± 0.63
34.18 K, Crystal 1, Small (less than 1 g) adiabatic calorimetry | 56.62 ± 0.61
34.66 K, Crystal 1, Small (less than 1 g) adiabatic calorimetry | 57.7 ± 0.61
35.58 K, Crystal 2, Small (less than 1 g) adiabatic calorimetry | 63.81 ± 0.64
35.96 K, Crystal 1, Small (less than 1 g) adiabatic calorimetry | 60.42 ± 0.62
36.15 K, Crystal 1, Small (less than 1 g) adiabatic calorimetry | 60.78 ± 0.62
37.11 K, Crystal 2, Small (less than 1 g) adiabatic calorimetry | 67 ± 0.65
37.29 K, Crystal 1, Small (less than 1 g) adiabatic calorimetry | 63.17 ± 0.63
38.18 K, Crystal 1, Small (less than 1 g) adiabatic calorimetry | 64.88 ± 0.63
38.66 K, Crystal 1, Small (less than 1 g) adiabatic calorimetry | 65.91 ± 0.64
38.66 K, Crystal 2, Small (less than 1 g) adiabatic calorimetry | 70.19 ± 0.66
40 K, Crystal 1, Vacuum adiabatic calorimetry | 68.45 ± 0.58
40 K, Crystal 2, Vacuum adiabatic calorimetry | 72.67 ± 0.6
40.05 K, Crystal 1, Small (less than 1 g) adiabatic calorimetry | 68.62 ± 0.65
40.1 K, Crystal 2, Small (less than 1 g) adiabatic calorimetry | 72.86 ± 0.66
40.24 K, Crystal 1, Small (less than 1 g) adiabatic calorimetry | 68.92 ± 0.65
41.44 K, Crystal 2, Small (less than 1 g) adiabatic calorimetry | 75.41 ± 0.68
41.46 K, Crystal 1, Small (less than 1 g) adiabatic calorimetry | 71.35 ± 0.66
42.21 K, Crystal 1, Small (less than 1 g) adiabatic calorimetry | 72.67 ± 0.67
42.84 K, Crystal 2, Small (less than 1 g) adiabatic calorimetry | 78.05 ± 0.7
42.89 K, Crystal 1, Small (less than 1 g) adiabatic calorimetry | 74.07 ± 0.67
44.12 K, Crystal 1, Small (less than 1 g) adiabatic calorimetry | 76.27 ± 0.68
44.27 K, Crystal 2, Small (less than 1 g) adiabatic calorimetry | 80.76 ± 0.71
44.33 K, Crystal 1, Small (less than 1 g) adiabatic calorimetry | 76.76 ± 0.68
45.76 K, Crystal 2, Small (less than 1 g) adiabatic calorimetry | 83.54 ± 0.72
45.77 K, Crystal 1, Small (less than 1 g) adiabatic calorimetry | 79.44 ± 0.7
46.11 K, Crystal 1, Small (less than 1 g) adiabatic calorimetry | 79.97 ± 0.7
47.22 K, Crystal 1, Small (less than 1 g) adiabatic calorimetry | 82.08 ± 0.71
47.31 K, Crystal 2, Small (less than 1 g) adiabatic calorimetry | 86.36 ± 0.73
48.17 K, Crystal 1, Small (less than 1 g) adiabatic calorimetry | 83.7 ± 0.72
48.67 K, Crystal 1, Small (less than 1 g) adiabatic calorimetry | 84.74 ± 0.72
48.88 K, Crystal 2, Small (less than 1 g) adiabatic calorimetry | 89.17 ± 0.75
50 K, Crystal 1, Vacuum adiabatic calorimetry | 86.93 ± 0.64
50 K, Crystal 2, Vacuum adiabatic calorimetry | 91.14 ± 0.67
50.13 K, Crystal 1, Small (less than 1 g) adiabatic calorimetry | 87.32 ± 0.73
50.27 K, Crystal 1, Small (less than 1 g) adiabatic calorimetry | 87.41 ± 0.73
50.47 K, Crystal 2, Small (less than 1 g) adiabatic calorimetry | 91.97 ± 0.76
51.6 K, Crystal 1, Small (less than 1 g) adiabatic calorimetry | 89.81 ± 0.75
52.07 K, Crystal 2, Small (less than 1 g) adiabatic calorimetry | 94.74 ± 0.78
52.41 K, Crystal 1, Small (less than 1 g) adiabatic calorimetry | 91.07 ± 0.75
53.06 K, Crystal 1, Small (less than 1 g) adiabatic calorimetry | 92.27 ± 0.76
53.69 K, Crystal 2, Small (less than 1 g) adiabatic calorimetry | 97.39 ± 0.79
54.53 K, Crystal 1, Small (less than 1 g) adiabatic calorimetry | 94.7 ± 0.77
54.59 K, Crystal 1, Small (less than 1 g) adiabatic calorimetry | 94.68 ± 0.77
55.31 K, Crystal 2, Small (less than 1 g) adiabatic calorimetry | 100.11 ± 0.81
56.01 K, Crystal 1, Small (less than 1 g) adiabatic calorimetry | 97.07 ± 0.78
56.79 K, Crystal 1, Small (less than 1 g) adiabatic calorimetry | 98.21 ± 0.79
56.94 K, Crystal 2, Small (less than 1 g) adiabatic calorimetry | 102.73 ± 0.82
57.48 K, Crystal 1, Small (less than 1 g) adiabatic calorimetry | 99.44 ± 0.8
58.59 K, Crystal 2, Small (less than 1 g) adiabatic calorimetry | 105.37 ± 0.84
58.96 K, Crystal 1, Small (less than 1 g) adiabatic calorimetry | 101.75 ± 0.81
58.97 K, Crystal 1, Small (less than 1 g) adiabatic calorimetry | 101.63 ± 0.81
60 K, Crystal 1, Vacuum adiabatic calorimetry | 103.22 ± 0.71
60 K, Crystal 2, Vacuum adiabatic calorimetry | 107.66 ± 0.74
60.24 K, Crystal 2, Small (less than 1 g) adiabatic calorimetry | 108.04 ± 0.85
60.44 K, Crystal 1, Small (less than 1 g) adiabatic calorimetry | 104.07 ± 0.82
61.09 K, Crystal 1, Small (less than 1 g) adiabatic calorimetry | 104.91 ± 0.83
61.9 K, Crystal 2, Small (less than 1 g) adiabatic calorimetry | 110.62 ± 0.86
